Tests used:
[1] = biological target: T1, PTBP1 (Homo sapiens, UniProt P26599); experiment: Microscale thermophoresis (MST) of UPCP and PTBP1; type: binding; details: Fig. 4l
T1 construct: made in house
Protocol: Cells were harvested and lysed in buffer A mixed with protease inhibitor cocktail tablet (Roche) after 48 h. […] The beads were washed three times using 1× Tris saline buffer (50 mM Tris-HCl (pH 7.4) and 150 mM NaCl)) for 8 min each. The bound proteins BUBR1 or PTBP1 were eluted with 3×Flag peptide (ApexBio) for 2 h at 4 °C. Finally, BUBR1 or PTBP1 was concentrated and recovered by using the Centrifugal Filters (Amicon Ultra).
His-UPCP was eluted with Imidazole eluent for 2 h at 4 °C and concentrated and recovered by using centrifugal filters (Amicon Ultra). Flag-BUBR1 or PTBP1 was purified as described in Affinity purification of Flag-tagged protein. The purified protein was diluted with 0.05% Tween-20 in PBS in to an appropriate concentration (His-UPCP: 50 nM, Flag-BUBR1: 25 μM, Flag-PTBP1: 45 μM). Then, His-UPCP was labeled with RED-Tris-NAT according to the manufacturer’s instructions (NanoTemper, MO-L018). Flag-BUBR1 or Flag-PTBP1 was diluted by 16 concentration gradients in turn and mixed with labeled protein (His-UPCP). The capillaries (MST NT115 premium) were loaded and the samples measured on the instrument (NanoTemper Monolith NT.115). Data were analyzed by MO.AffinityAnalysis and curves were drawn using Origin 2019.

[2] = tested on: senescent IMR90 cells; experiment: CCK8 cell viability of DNA damage-induced senescent IMR90 cells; type: cell-based, human; details: IMR90, 10 days after bleomycin, doxorubicin, ionizing radiation or etoposide
Protocol: Fibroblasts from patients with HGPS were obtained from The Progeria Research Foundation Cell and Tissue Bank (http://www.progeriaresearch.org). The following fibroblasts were used: HGADFN003, HGADFN167, HGMDFN090 and HGFDFN168. Human dermal fibroblasts (GM00038 and AG09602) were obtained from Coriell Cell Repository (https://catalog.coriell.org). These cells were characterized by DNA fingerprinting and isozyme detection and were tested by a MycoBlue Mycoplasma Detector (Vazyme Biotech) to exclude mycoplasma contamination before the experiments. […] HGADFN003, HGADFN167, HGMDFN090, HGFDFN168, GM00038 and AG09602 were cultured in DMEM medium with 15% (v/v) fetal bovine serum (VivaCell). […] For bleomycin-induced senescence, IMR90 cells were incubated with the culture medium containing 20 μg ml^–1 Bleomycin (Selleck, catalog no. S1214) for 2 h and analyzed 10 days later, or as otherwise indicated. For doxorubicin-induced senescence, IMR90 cells were treated twice with 100 nM Doxorubicin (Selleck, catalog no. S1208) with a 2 day interval and analyzed 10 days later, or as otherwise indicated. For ionizing radiation (IR)-induced senescence, IMR90 cells were exposed to 10 Gy Gamma rays, and analyzed 10 days later, or as otherwise indicated, the control IMR90 cells were mock irradiated. […]
Cell viability was assessed using the Cell Counting Kit-8 (CCK8) (APE, catalog no. k1018). […]

[3] = tested on: IMR90 cells; experiment: Etoposide-, Ras- and H2O2-induced early stage senescence of IMR90 cells; type: cell-based, human; details: IMR90, UPCP 6 μM, another 5 days; SA-β-gal, Ki67, Western blot
Description: HGPS is an extremely rare congenital genetic disease, and its treatments are still under theoretical research. […] Also, to investigate the role of UPCP on other senescence models, we used Etoposide, Ras or H2O2 to induce senescence of IMR90 cells, and added UPCP to the cells treated with the drugs mentioned above when the cells just entered early stage senescence. […] Further work aimed at obtaining UPCPs with stronger stability, longer half-life and optimized physical structures are under planning. Therefore, UPCP may have broad application prospects in the treatment of HGPS.
SA-β-gal positive cells was calculated (c). Scale bars: 200 μm. d. Western blot analysis of Lamin B1, CyclinA2, IL-6 and p21 in senescent IMR90 cells with the indicated treatments. e,f.
Immunofluorescence analysis of Ki67 in IMR90 cells with the indicated treatment. Representative […]
≥ 200 cells. Scale bars: 50 μm. For bar and line graphs, data are presented as mean ± SD.
Statistical significance was determined in c and f using two-tailed unpaired Student’s t-test.
Supplementary Data Figure 2. UPCP delays Etoposide, Ras and H2O2 induced early stage cellular senescence. a. […]
and the percentage of the Ki67 positive cells was calculated (f), n ≥ 200 cells. […]
For bar and line graphs, data are presented as mean ± SD. Statistical significance was determined inc and f using two-tailed unpaired Student’s t-test.

T1 sequence (P26599 whole entry): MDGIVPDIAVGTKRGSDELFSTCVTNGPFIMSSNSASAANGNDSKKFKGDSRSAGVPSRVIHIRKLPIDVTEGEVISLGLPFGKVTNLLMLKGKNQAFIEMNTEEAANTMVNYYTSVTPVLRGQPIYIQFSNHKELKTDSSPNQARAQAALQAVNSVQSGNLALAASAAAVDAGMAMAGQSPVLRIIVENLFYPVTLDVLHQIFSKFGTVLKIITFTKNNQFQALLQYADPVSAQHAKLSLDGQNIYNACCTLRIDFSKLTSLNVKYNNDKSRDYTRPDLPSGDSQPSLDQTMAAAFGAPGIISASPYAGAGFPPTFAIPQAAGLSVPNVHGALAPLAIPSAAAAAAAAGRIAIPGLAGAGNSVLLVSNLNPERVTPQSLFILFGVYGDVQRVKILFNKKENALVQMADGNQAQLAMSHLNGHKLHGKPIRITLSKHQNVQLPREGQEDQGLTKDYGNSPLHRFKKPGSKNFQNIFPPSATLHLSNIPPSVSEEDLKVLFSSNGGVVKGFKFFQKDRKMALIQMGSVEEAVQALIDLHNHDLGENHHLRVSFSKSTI

## H-YGRKKRRQRRRYNLRSRTVLCGTCGQPADKASASGSGAQSPQNCSIM-OH (cysteines drawn unpaired) [UPCP, unique progerin C-terminal peptide]
[1]; Dose 5.625e-6, Err-Value 0.11619
  Dose Response Curve, Response: 926.063
[1]; Dose 1.125e-5, Err-Value 0.242742
  Dose Response Curve, Response: 928.882
[1]; Dose 2.25e-5, Err-Value 0.492149
  Dose Response Curve, Response: 930.614
[1]; Dose 1.10E-08, Err-Value 0.170403
  Dose Response Curve, Response: 918.746
[1]; Dose 1.37E-09, Err-Value 0.46814
  Dose Response Curve, Response: 919.158
[1]; Dose 1.41E-06, Err-Value 0.643872
  Dose Response Curve, Response: 921.756
[1]; Dose 1.76E-07, Err-Value 0.140462
  Dose Response Curve, Response: 919.37
[1]; Dose 2.20E-08, Err-Value 0.425445
  Dose Response Curve, Response: 918.898
[1]; Dose 2.75E-09, Err-Value 0.242938
  Dose Response Curve, Response: 919.038
[1]; Dose 2.81E-06, Err-Value 0.290637
  Dose Response Curve, Response: 923.469
[1]; Dose 3.52E-07, Err-Value 0.0904303
  Dose Response Curve, Response: 919.901
[1]; Dose 4.39E-08, Err-Value 0.556308
  Dose Response Curve, Response: 918.749
[1]; Dose 5.49E-09, Err-Value 0.120596
  Dose Response Curve, Response: 918.787
[1]; Dose 6.87E-10, Err-Value 0.420573
  Dose Response Curve, Response: 919.333
[1]; Dose 7.03E-07, Err-Value 0.21429
  Dose Response Curve, Response: 920.338
[1]; Dose 8.79E-08, Err-Value 0.322491
  Dose Response Curve, Response: 918.54
[2]
  proliferation of DNA damage-induced senescent cells: did not cause DNA damage-induced senescent cells to proliferate
[3]
  etoposide-, ras- and H2O2-induced early stage cellular senescence: delayed etoposide-, ras- and H2O2-induced early stage cellular senescence modestly

Reference: PMC10154249, “Unique progerin C-terminal peptide ameliorates Hutchinson–Gilford progeria syndrome phenotype by rescuing BUBR1” (Nature Aging, 2023)
